In doi:10.1101/2022.02.24.481826v2 (biorxiv, 2022):

Molecular target: T1, AMPK4 (Arabidopsis thaliana, UniProt O82514)
T1 sequence (O82514 2-246): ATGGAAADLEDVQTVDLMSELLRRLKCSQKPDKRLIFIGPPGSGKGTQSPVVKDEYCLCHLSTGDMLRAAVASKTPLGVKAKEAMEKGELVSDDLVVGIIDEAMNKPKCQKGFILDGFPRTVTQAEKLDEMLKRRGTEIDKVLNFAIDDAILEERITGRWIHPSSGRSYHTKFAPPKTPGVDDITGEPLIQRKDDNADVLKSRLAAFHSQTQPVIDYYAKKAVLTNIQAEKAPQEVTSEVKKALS
Assay: coupled pyruvate kinase / lactate dehydrogenase assay, […] nm
Assay type: biochemical
Conditions: 1 mM AMP, 1 mM ATP

coupled pyruvate kinase / lactate dehydrogenase assay, 340 nm: Analogous data for AMPK4
Structure (SMILES): Nc1ncnc2c1ncn2[C@@H]1O[C@H](COP(=O)(O)O)[C@@H](O)[C@H]1O [AMP]
